Values joined by “and” are separate entries in the source; they are usually repeats but may differ in a detail not shown here. Equal entries are not always repeated.
[I][Sm][I] [samarium diiodide]
Liquid
Settings | vapor or sublimation pressure
1048 K | 0.00013 kPa
1051 K | 0.00016 kPa
1064 K | 0.00021 kPa
1065 K | 0.00019 kPa
1068 K | 0.00024 kPa
1069 K | 0.00024 kPa
1072 K | 0.00021 kPa
1074 K | 0.00027 kPa
1076 K | 0.00027 kPa and 0.00024 kPa
1078 K | 0.00029 kPa
1080 K | 0.0004 kPa
1082 K | 0.00032 kPa
1085 K | 0.00035 kPa
1086 K | 0.00035 kPa
1088 K | 0.00048 kPa
1089 K | 0.00035 kPa
1092 K | 0.00043 kPa and 0.00035 kPa
1093 K | 0.00043 kPa
1094 K | 0.00043 kPa
1096 K | 0.00048 kPa
1098 K | 0.00045 kPa
1100 K | 0.00045 kPa
1101 K | 0.00053 kPa
1102 K | 0.00075 kPa
1103 K | 0.00056 kPa
1104 K | 0.00059 kPa
1106 K | 0.00056 kPa
1108 K | 0.00064 kPa and 0.00051 kPa
1110 K | 0.00061 kPa
1111 K | 0.00064 kPa
1113 K | 0.00064 kPa
1114 K | 0.00077 kPa
1118 K | 0.00069 kPa and 0.00075 kPa and 0.00064 kPa
1120 K | 0.0008 kPa
1121 K | 0.00117 kPa
1124 K | 0.00093 kPa and 0.00096 kPa and 0.00085 kPa
1125 K | 0.00085 kPa
1126 K | 0.00091 kPa
1128 K | 0.00139 kPa and 0.00085 kPa
1129 K | 0.00107 kPa and 0.00096 kPa
1133 K | 0.00123 kPa and 0.00104 kPa
1134 K | 0.00107 kPa
1135 K | 0.00115 kPa
1136 K | 0.00134 kPa
1138 K | 0.00112 kPa
1139 K | 0.00123 kPa
1140 K | 0.00176 kPa
1141 K | 0.00128 kPa
1142 K | 0.00155 kPa and 0.00128 kPa
1144 K | 0.00144 kPa
1145 K | 0.0016 kPa and 0.00166 kPa
1148 K | 0.00144 kPa
1150 K | 0.0016 kPa
1151 K | 0.0016 kPa
1152 K | 0.00198 kPa
1153 K | 0.00182 kPa
1154 K | 0.00203 kPa
1155 K | 0.00214 kPa
1158 K | 0.00198 kPa and 0.00192 kPa and 0.00187 kPa
1159 K | 0.00262 kPa and 0.00203 kPa
1160 K | 0.0023 kPa
1161 K | 0.0024 kPa and 0.00219 kPa
1162 K | 0.00208 kPa and 0.00203 kPa
1164 K | 0.00262 kPa
1167 K | 0.00246 kPa
1168 K | 0.0024 kPa
1169 K | 0.00278 kPa and 0.00288 kPa
1170 K | 0.00272 kPa
1171 K | 0.00347 kPa and 0.00251 kPa and 0.00246 kPa
1173 K | 0.0031 kPa
1177 K | 0.00331 kPa [middle of 4 runs]
1178 K | 0.00326 kPa
1179 K | 0.00288 kPa and 0.00358 kPa and 0.00294 kPa
1181 K | 0.00368 kPa
1183 K | 0.00449 kPa
1185 K | 0.00363 kPa
1186 K | 0.00368 kPa [middle of 5 runs]
1187 K | 0.00401 kPa
1188 K | 0.00427 kPa
1189 K | 0.00336 kPa and 0.00331 kPa
1195 K | 0.00443 kPa
1196 K | 0.00507 kPa

[I][Sm]([I])[I] [samarium triiodide]
Crystal
Settings | vapor or sublimation pressure
789 K | 0.00017 kPa
797 K | 0.00024 kPa
799 K | 0.0002 kPa
801 K | 0.0002 kPa
805 K | 0.00034 kPa
807 K | 0.00029 kPa
808 K | 0.00025 kPa
814 K | 0.00051 kPa
815 K | 0.00034 kPa
819 K | 0.00051 kPa
823 K | 0.00071 kPa and 0.00047 kPa
824 K | 0.00064 kPa
832 K | 0.00067 kPa
833 K | 0.00088 kPa and 0.00101 kPa
840 K | 0.00111 kPa and 0.00098 kPa
843 K | 0.00145 kPa
849 K | 0.00148 kPa and 0.00135 kPa
852 K | 0.00212 kPa
856 K | 0.00189 kPa
857 K | 0.00168 kPa
863 K | 0.00236 kPa
867 K | 0.00236 kPa
868 K | 0.00276 kPa
876 K | 0.00307 kPa

Reference: the NIST ThermoML archive (doi:10.1021/je050112b)
